Experimental data reported in ChEMBL document CHEMBL1153614, “Synthesis, spectral characterization, in-vitro microbiological evaluation and cytotoxic activities of novel macrocyclic bis hydrazone” (Eur J Med Chem, 2009).

What was measured:
Shigella dysenteriae = assay: Antibacterial activity against Shigella dysenteriae at 10 ug/ml for 24 hrs by disc diffusion method; assay type: functional
Staphylococcus aureus = assay: Antibacterial activity against Staphylococcus aureus at 10 ug/ml for 24 hrs by disc diffusion method; assay type: functional
Escherichia coli = assay: Antibacterial activity against Escherichia coli at 10 ug/ml for 24 hrs by disc diffusion method; assay type: functional
Pseudomonas aeruginosa = assay: Antibacterial activity against Pseudomonas aeruginosa at 10 ug/ml for 24 hrs by disc diffusion method; assay type: functional
Micrococcus = assay: Antibacterial activity against Micrococcus sp. at 10 ug/ml for 24 hrs by disc diffusion method; assay type: functional
Bacillus cereus = assay: Antibacterial activity against Bacillus cereus at 10 ug/ml for 24 hrs by disc diffusion method; assay type: functional
Bacillus subtilis = assay: Antibacterial activity against Bacillus subtilis at 10 ug/ml for 24 hrs by disc diffusion method; assay type: functional
Candida albicans = assay: Antifungal activity against Candida albicans at 10 ug/ml for 48 hrs by disc diffusion method; assay type: functional
Aspergillus niger = assay: Antifungal activity against Aspergillus niger at 10 ug/ml for 48 hrs by disc diffusion method; assay type: functional
Penicillium = assay: Antifungal activity against Penicillium at 10 ug/ml for 48 hrs by disc diffusion method; assay type: functional
Artemia salina = assay: Toxicity against Artemia salina; assay type: organism-based; details: in vivo

GENTAMICIN gave an Activity (Shigella dysenteriae) of 20 mm, an Activity (Staphylococcus aureus) of 20 mm and an Activity (Escherichia coli) of 20 mm. The Activity (Pseudomonas aeruginosa) was 20 mm, the Activity (Micrococcus) was 20 mm and the Activity (Bacillus cereus) was 20 mm. The Activity (Bacillus subtilis) was 20 mm.
`Cc1cc2c(O)c(c1)/C=N\NC(=O)c1ccc(cc1)C(=O)N/N=C\c1cc(O)c(cc1C)/C=N\NC(=O)c1ccc(cc1)C(=O)NN=C2` gave an Activity (Candida albicans) of 16 mm, an Activity (Aspergillus niger) of 22 mm and an Activity (Penicillium) of 20 mm. The Activity (Shigella dysenteriae) was 16 mm, the Activity (Staphylococcus aureus) was 10 mm and the Activity (Escherichia coli) was 16 mm. For the same molecule, the Activity (Pseudomonas aeruginosa) was 14 mm, the Activity (Micrococcus) was 14 mm and the Activity (Bacillus cereus) was 16 mm. For the same molecule, the Activity (Bacillus subtilis) was 20 mm and the Activity (Artemia salina) was “Non-toxic”.
`OC(Cn1cncn1)(Cn1cncn1)c1ccc(F)cc1F` [FLUCONAZOLE] showed an Activity (Candida albicans) of 24 mm, an Activity (Aspergillus niger) of 24 mm and an Activity (Penicillium) of 24 mm.
